# From patent publication US7612255B2, “Transgenic plants for mitigating introgression of genetically engineered genetic traits” (priority 1999, dated 2009)
# How the values were obtained:
# red rice = conditions: fields of transgenic rice bearing the bar gene (Oard et al. 2000); cited from earlier work
# [1] = tested on: non-transformed tobacco plants; assay: Seed germination in the presence of kanamycin or imazapyr (tobacco); type: in vivo, Nicotiana tabacum; conditions: tobacco seeds on Nitsch agar medium; sensitive seedlings stop growing within 10 days
# Method: Surface sterilized seeds of wild type, the backcross of primary transformants with wild type T0 (=BC), T1, T2, and T3 tobacco plants were planted on either medium. Sensitive seedlings were identified as those that stopped growing within 10 days, forming only short roots and cotyledons, while resistant seedlings grew well, forming long roots and true leaves, continuing their growth past 10 days. The segregation ratio of wild type to TM of each line was calculated. Resistant/dwarfed seedlings were grown to maturity in soil and the plants were analyzed for AHAS resistance (phenotype) and for ahas^R and Δgai insert by PCR (genotype), as described herein above.
# Competition of TM transgenics with the wild type, and self competition of each alone: The transgenic TM tobacco was used to simulate a TM introgressed hybrid or transgenic volunteer crop, and the wild type tobacco was used to simulate a non-transgenic crop, weed, or wild plant. The competitive interactions between the transgenic and wild type plants were assessed in two separate internally replicated greenhouse experiments. In both experiments, seeds obtained from the first backcross T1 (═BC1) of a representative TM line T1-7 (pollen recipient) and wild type (pollen donor) were used to grow mixed TM and wild type cultures. […]
# non-transgenic B. napus = assay: Rooting of regenerated plantlets in the presence of kanamycin; type: in vivo, Brassica napus; conditions: root formation of regenerated B. napus plantlets
# Excerpt: Transformation of oilseed rape (B. napus cv. Westar): The Agrobacterium tumefaciens-mediated transformation protocol of Moloney, et al (Plant Cell Reports 1989; 8,238-242) using excised cotyledonary petioles of B. napus cv. Westar seedlings was followed with some modifications. Excised cotyledons of axenic B. napus cv. Westar seedlings were inoculated by dipping the cut end of a 2 mm petiole in a suspension of A. tumefaciens strain EHA105 or EHA 101 containing the same TM 1 construct described in detail in Example 1. Non-transformed cotyledons served as negative controls. After co-cultivation for 2.5 days, the cotyledons were regenerated on Murashige-Skoog (MS) medium containing 500 mg/L carbenicillin to kill A. tumefaciens and 20 mg/L kanamycin as the primary plant selectable marker. Some healthy calli developed on the cut petioles and regenerated into green shoots which were then sub-cultured onto shoot elongation medium containing 300 mg/L carbenicillin and either 20 mg/L kanamycin or 0.2 μM imazapyr herbicide as secondary selectable marker of the putative transformants. The shoots were then rooted, potted, and transferred to the greenhouse to grow flower and set seed. The putative transformants were tested by PCR (FIG. 5) and by AHAS enzymatic assay (as described in Example 1 herein above) (FIG. 6) to confirm TM transformation. […]
# [2] = tested on: non-transformed B. napus plants; assay: Seed germination in the presence of kanamycin or imazapyr (oilseed rape); type: in vivo, Brassica napus; conditions: B. napus seeds on Nitsch agar medium
# Method: Seed germination in the presence of kanamycin or imazapyr: A discriminatory dose level of Nitsch (Nitsch, Nicotiana. Phytomorphology 1969; 19, 389-404) agar medium containing 150 mg/L kanamycin or 0.3 μM imazapyr inhibiting the growth of non-transformed plants was determined. Surface sterilized seeds of non-transgenic, and TM B. napus plants were planted on either medium. Sensitive seedlings stopped growing within 10 days forming only short roots and cotyledons, while resistant seedlings formed long roots and true leaves and continued their growth. The segregation ratio of non-transgenic to TM of each line was calculated. Resistant/dwarfed seedlings were grown to maturity in soil and the plants were analyzed for AHAS resistance and for ahas^R and Δgai insert by PCR, as described above.
# Competition of TM transgenic vs. non-transgenic Brassica napus plants and self competition of each alone: The competitive interactions between the TM transgenic vs. non-transgenic Brassica napus plants were assessed in replicated greenhouse experiments. In the first experiment seeds obtained from the selfed homozygous TM lines T1-J9-4 and -6 were used to grow the TM plants in mixed cultures with the non-transgenic plants in a 1:1 TM/WT ratio. […]
# [3] = tested on: Δgai-transformed male sterile tobacco plants; type: in vivo, Nicotiana tabacum; conditions: kinetin foliar spray; normal fertilization and seed development
# Excerpt: Seed production on Δgai male sterile plants: The Δgai effect on pollen production is not irreversible: treatment of plants with cytokinins results in plants producing fertile pollen, and capable of self fertilization. Hemizygous imazapyr resistant and semi-dwarf primary TM tobacco transformants (lines 7, 8, and 10) were transferred to soil and grown to flowering. […] The chemicals were in an aqueous solution containing 0.1% (v/v) Tween 20 surfactant. The control group received the surfactant solution only, or none at all. All applications were made through foliar spray every other day for 2 weeks. Female fertility was assessed by backcrossing wild type pollen donors were backcrossed to one plant from each line without kinetin application (FIG. 4). At maturity, the capsules formed on each plant were counted and the dry weight of seed set of up to 5 capsules per each plant was measured. Normal seed set was observed.
# Anthers were collected from three flowers per plant. A minimum of three plants per biotype were analyzed. Pollen viability was scored by staining the pollen with cotton blue stain [Phillips, R. L. in G. Clark, ed. […]
# Floral bud and pistil development of the TM transgenic plants were similar to that of wild type plants. […] Pollen viability, scored by staining tests, of these restored lines was >93% compared to approximately 0% of non-treated plants (FIG. 4). […]
compound,measurement,setting,value
CP(=O)(O)CCC(N)C(=O)O (stereo not drawn) [glufosinate],Control of red rice,red rice,easily controlled
CC(C)C1(C)N=C(c2ncccc2C(=O)O)NC1=O (stereo not drawn) [imazapyr],Discriminatory dose level inhibiting the growth of non-transformed plants,[1],0.3 µM
NC[C@H]1O[C@H](O[C@H]2[C@H](O)[C@@H](O[C@H]3O[C@H](CO)[C@@H](O)[C@H](N)[C@H]3O)[C@H](N)C[C@@H]2N)[C@H](O)[C@@H](O)[C@@H]1O [kanamycin],Kanamycin concentration which inhibits the non-transgenics,non-transgenic B. napus,20 mg/L
same,Discriminatory dose level inhibiting the growth of non-transformed plants,[2],150 mg/L
same,Discriminatory dose level inhibiting the growth of non-transformed plants,[1],85.8 µM
c1coc(CNc2ncnc3[nH]cnc23)c1 [kinetin],Restoration of fertility of male sterile TM transgenic plants,[3],restored the fertility
